Source: US20240254089A1, “MODULATORS OF MAS-RELATED G-PROTEIN RECEPTOR X4 AND RELATED PRODUCTS AND METHODS” (ESCIENT PHARMACEUTICALS, INC., priority 2020, published 2024)
Like-named read-outs stand apart in the source and are kept apart here.

Target: T1, human MRGPR X4 (Homo sapiens, UniProt Q96LA9)
T1 construct: expressed in transfected cells
Assay: MRGPR X4 antagonist activity, IP-One Gq HTRF assay in stably transfected HEK cells
Format: cell-based
Method: HEK cells stably transfected to express human MIRGPR X4 were maintained in an incubator at 37° C. with 5% CO2 and grown in DMEM media with 10% fetal bovine serum (FBS) and […] each of sodium pyruvate, Glutamax, penicillin/streptomycin, and Geneticin. HEK cells stably transfected to express mouse MRGPR A1 were maintained in the same incubator and grown in DMEM media with 10% FBS, 1% each of sodium pyruvate, Glutamax, penicillin/streptomycin, Geneticin, and 2.2 mg/mL Hygromycin.
Cells were plated in a 384-well assay plate at 20,000 cells per well in 12 μL of Opti-MEM and kept in an incubator overnight. On the day of the assay, compounds solubilized at 10 mM in DMSO were added as a 10-point curve (10 uM final top concentration with 1:3 serial dilutions) using a Tecan D300E digital dispenser. Agonists were diluted in assay buffer (final concentrations of 5.7 mM Tris-HCl, 43 mM NaCl, 50 mM LiCl, pH=8) and 2 μL of the appropriate agonist are added to each well. Final concentrations of agonists were 10 μM bilirubin, 20 μM deoxycholic acid, or 100 μM conjugated bilirubin (obtained from Lee Biosolutions, catalog #910-12). Final concentrations of DMSO were kept consistent across the plate. Plates were incubated in the dark for 1 h at 37° C. and then for 30 minutes at room temperature. IP-1 standards and HTRF detection reagents were added according to the IP-One—Gq Kit purchased from Cisbio (part number 62IPAPEJ) and incubated in the dark for 1 h at room temperature. The plate was read on a Molecular Devices SpectraMax iD5 plate reader. The HTRF ratio was calculated from the raw data and graphed using GraphPad Prism to calculate an IC50 value for each compound.

[1] = versus 20 μM deoxycholic acid agonist, HEK cells expressing human MRGPR X4, read-out: MRGPRX4 Antagonist Activity

T1 sequence (Q96LA9 whole entry): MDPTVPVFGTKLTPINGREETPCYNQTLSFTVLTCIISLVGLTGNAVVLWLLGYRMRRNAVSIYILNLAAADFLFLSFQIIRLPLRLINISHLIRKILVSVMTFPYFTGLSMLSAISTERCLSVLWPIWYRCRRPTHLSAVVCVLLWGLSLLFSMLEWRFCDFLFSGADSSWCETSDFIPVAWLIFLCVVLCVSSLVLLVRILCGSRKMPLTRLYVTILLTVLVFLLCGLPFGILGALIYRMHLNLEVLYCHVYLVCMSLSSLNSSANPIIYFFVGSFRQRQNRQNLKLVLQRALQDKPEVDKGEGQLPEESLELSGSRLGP

| SMILES | IC50 [µM] | IC50 [1] [µM] |
| --- | --- | --- |
| O=C(NCCc1cn2c(n1)SCC2)c1nn(Cc2ccc(Cl)cc2)c2ccccc12 [Compound 33] | 0.1 to 0.5 | – |
| O=C(O)c1nn(Cc2ccc(Cl)c(Cl)c2)c2ccccc12 [Compound 318] | 1 to 2.5 | – |
| Cc1cc(S(=O)(=O)NC(=O)c2nn(Cc3ccc(OC(F)F)cc3)c3ccccc23)ccc1C#N [Compound 259] | – | 0.1 to 0.5 |
| Cc1oc(-c2ccccc2F)nc1Cn1nc(C(=O)NCCc2nnc3ccccn23)c2ccccc21 [Compound 514] | 0.1 to 0.5 | – |
| Cc1c(Cn2nc(C(=O)NCCc3nnc4ccccn34)c3ccccc32)oc2ccccc12 [Compound 573] | < 0.1 | – |
| O=C(NCCc1cncnc1)c1nn(Cc2ccc(Cl)cc2)c2ccccc12 [Compound 102] | 1 to 2.5 | – |
| CC(c1ccc(Cl)cc1)n1nc(C(=O)NCCc2nnc3n2CCCCC3)c2ccccc21 (stereo not shown) [Compound 74] | 0.501 to 1 | – |
| O=C(NCCc1ccc(O)cc1)c1nn(Cc2ccc(Cl)cc2)c2ccccc12 [Compound 40] | 0.1 to 0.5 | – |
| O=C(NS(=O)(=O)c1ccccc1C(F)(F)F)c1nn(Cc2ccc(OC(F)F)cc2)c2ccccc12 [Compound 262] | – | 0.501 to 1 |
| O=C(NCCc1nnc2ccccn12)c1nn(Cc2nc(C3CCC3)no2)c2ccccc12 [Compound 511] | 0.1 to 0.5 | – |
| O=C(NCCc1nnc2n1CCCCC2)c1nn(Cc2ccc(OC(F)F)cc2)c2ccccc12 [Compound 24] | < 0.1 | – |
| O=C(NCCc1nnc2ccccn12)c1nn(Cc2cc(-c3ccc4c(c3)OCO4)no2)c2ccccc12 [Compound 500] | – | 1 to 2.5 |
| COc1ccc(Cn2nc(C(=O)NCCc3nnc4ccccn34)c3ccccc32)c2ccccc12 [Compound 473] | 0.1 to 0.5 | – |
| CC(C)(C)c1ccc(Cn2nc(C(=O)NCCc3ccccn3)c3ccccc32)cc1 [Compound 112] | 1 to 2.5 | – |
| O=C(NCCc1noc(-c2ccccc2)n1)c1nn(Cc2ccc(Cl)cc2)c2ccccc12 [Compound 105] | 1 to 2.5 | – |
| O=C(NCCc1nnc2ccccn12)c1nn(Cc2cccn3ccnc23)c2ccccc12 [Compound 518] | 1 to 2.5 | – |
| N#Cc1ccc(Cn2nc(C(=O)NCCc3nnc4ccccn34)c3ccccc32)cc1 [Compound 408] | 0.1 to 0.5 | – |
| O=C(O)c1nn(Cc2ccc(C3CCCCC3)cc2)c2ccccc12 [Compound 332] | > 2.5 | – |
| O=C(NCCOc1cccnc1)c1nn(Cc2ccc(Cl)cc2)c2ccccc12 [Compound 336] | 0.1 to 0.5 | – |
| O=C(CS(=O)(=O)c1cn(Cc2ccc(Cl)cc2)c2ccccc12)Nc1cccc(Cl)c1 [Compound 253] | – | 1 to 2.5 |
| CC(C)c1cccc(Cn2nc(C(=O)NCCc3nnc4ccccn34)c3ccccc32)c1 [Compound 456] | 0.1 to 0.5 | – |
| O=C(NCCc1ccccc1O)c1nn(Cc2ccc(Cl)cc2)c2ccccc12 [Compound 20] | < 0.1 | – |
| O=C(NCCc1ccc(F)cc1)c1cn(Cc2ccc(Cl)cc2)c2ccccc12 [Compound 179] | 0.1 to 0.5 | – |
| Cc1cc(S(=O)(=O)NC(=O)c2nn(Cc3ccc(C(F)(F)F)cc3Cl)c3ccccc23)ccc1C#N [Compound 263] | – | 0.501 to 1 |

| SMILES | IC50 [µM] | IC50 [1] [µM] |
| --- | --- | --- |
| Cc1ccc2c(C(=O)NCCc3nnc4ccccn34)nn(Cc3ccc(Cl)cc3)c2c1 [Compound 549] | 0.1 to 0.5 | – |
| O=C(NCCc1nnc2ccccn12)c1nn(CCC2CCCC2)c2ccccc12 [Compound 504] | 0.501 to 1 | – |
| O=C(NCCc1nnc2ccccn12)c1nn(Cc2nccc3ccccc23)c2ccccc12 [Compound 454] | 1 to 2.5 | – |
| CS(=O)(=O)c1ccc(CNC(=O)c2nn(Cc3ccc(Cl)cc3)c3ccccc23)cc1 [Compound 378] | > 2.5 | – |
| Cc1ccc(Cn2cc(C(=O)NCCc3nc4ccccc4s3)c3ccccc32)cc1 [Compound 192] | 0.501 to 1 | – |
| O=C(NCCc1nnc2ccccn12)c1nn(Cc2cc3c(cc2Cl)OCO3)c2ccc(F)cc12 [Compound 536] | < 0.1 | – |
| O=C(NCCc1nnc2ccccn12)c1nn(Cc2ccc(Cl)cc2F)c2ccc(F)cc12 [Compound 572] | < 0.1 | – |
| O=C(NCCc1cccnc1)c1nn(Cc2ccc(Cl)cc2)c2ccccc12 [Compound 19] | < 0.1 | – |
| CC(C)c1cn(CCNC(=O)c2nn(Cc3ccc(Cl)cc3)c3ccccc23)nn1 [Compound 137, 1-(4-chlorobenzyl)-N-(2-(4-isopropyl-1H-1,2,3-triazol-1-yl)ethyl)-1H-indazole-3-carboxamide] | < 0.1 | – |
| Cc1cc(Cn2nc(C(=O)NCCc3nnc4ccccn34)c3ccccc32)ccc1Cl [Compound 555] | < 0.1 | – |
| O=C(O)c1nn(Cc2ccc(C(F)(F)F)cc2Cl)c2ccccc12 [Compound 317] | 0.501 to 1 | – |
| O=C(NCCc1nnc2ccccn12)c1nn(Cc2ccc3c(c2)OCO3)c2ccccc12 [Compound 508] | 0.1 to 0.5 | – |
| Cc1ccc(Cn2cc(C(=O)NCCc3ccc(Cl)c(F)c3)c3ccccc32)cc1 [Compound 196] | 0.501 to 1 | – |
| O=C(NCCc1nnc2ccccn12)c1nn(Cc2ccc3occc3c2)c2ccccc12 [Compound 493] | < 0.1 | – |
| O=C(NCCc1ccccn1)c1cn(Cc2ccc(OC(F)F)cc2)c2ccccc12 [Compound 167] | 0.1 to 0.5 | – |
| O=C(NCCc1nnc2n1CCCCC2)c1nn(Cc2ccc(-c3ccccc3)cc2)c2ccccc12 [Compound 106] | 1 to 2.5 | – |
| O=C(NCCc1nnc2ccccn12)c1nn(Cc2ccc3c(c2)OC(F)(F)O3)c2ccccc12 [Compound 507] | 0.1 to 0.5 | – |
| Cc1c(Cl)cccc1S(=O)(=O)NC(=O)c1nn(Cc2cccc(F)c2)c2ccccc12 [Compound 307] | – | > 2.5 |
| O=C(NCc1ccc(-n2cccn2)nc1)c1nn(Cc2ccc(Cl)cc2)c2ccccc12 [Compound 369] | > 2.5 | – |
| Cc1ccc(S(=O)(=O)NC(=O)c2nn(Cc3ccc(OC(F)F)cc3)c3ccccc23)cc1C [Compound 295] | – | 1 to 2.5 |
| Cc1ccc(Cn2nc(C(=O)NCCc3nc4c(s3)CCCC4)c3cc(Cl)ccc32)cc1 [Compound 110] | 1 to 2.5 | – |
| Cc1ccc(NC(=O)CS(=O)(=O)c2cn(Cc3ccc(Cl)cc3)c3ccccc23)cc1 [Compound 247] | – | 1 to 2.5 |
| CC(C)(C#N)c1ccc(Cn2nc(C(=O)NCCc3nnc4ccccn34)c3ccccc32)cc1 [Compound 462] | 1 to 2.5 | – |
| O=C(O)c1nn(Cc2ccc(Cl)cc2)c2ccc(F)cc12 [Compound 322] | 1 to 2.5 | – |

| SMILES | IC50 [µM] | IC50 [1] [µM] |
| --- | --- | --- |
| O=C(NCCn1cc(-c2cccnc2)nn1)c1nn(Cc2ccc(Cl)cc2)c2ccccc12 [Compound 144, 1-(4-chlorobenzyl)-N-(2-(4-(pyridin-3-yl)-1H-1,2,3-triazol-1-yl)ethyl)-1H-indazole-3-carboxamide] | 0.1 to 0.5 | – |
| COc1ccnc(CCNC(=O)c2nn(Cc3ccc(Cl)cc3)c3ccccc23)c1 [Compound 62] | 0.1 to 0.5 | – |
| Cc1ccc(CCNC(=O)c2nn(Cc3ccc(Cl)cc3)c3ccccc23)cn1 [Compound 21] | < 0.1 | – |
| O=C(NCCc1nnc2ccccn12)c1nn(Cc2ccc3sccc3c2)c2ccccc12 [Compound 495] | < 0.1 | – |
| O=C(NCc1nc2ccccc2o1)c1nn(Cc2ccc(Cl)cc2)c2ccccc12 [Compound 393] | > 2.5 | – |
| CC(C)c1ccccc1S(=O)(=O)NC(=O)c1nn(Cc2ccc(Cl)cc2)c2ccccc12 [Compound 302] | – | > 2.5 |
| O=C(NCCc1nnc2ccccn12)c1nn(Cc2cn3cc(Br)ccc3n2)c2ccccc12 [Compound 502] | > 2.5 | – |
| Cc1cc(C)cc(S(=O)(=O)NC(=O)c2nn(Cc3ccc(OC(F)F)cc3)c3ccccc23)c1 [Compound 268] | – | 0.501 to 1 |
| Cc1cccc(S(=O)(=O)NC(=O)c2nn(Cc3ccc(Cl)cc3)c3ccccc23)n1 [Compound 305] | – | > 2.5 |
| Cc1ccc(Cn2nc(C(=O)NCCc3nncn3C)c3ccccc32)cc1 [Compound 107] | 1 to 2.5 | – |
| COc1cc(Cl)ccc1Cn1nc(C(=O)NCCc2cccnc2)c2ccccc21 [Compound 114] | 1 to 2.5 | – |
| Cc1ccc(Cn2nc(C(=O)NCCc3nnc4n3CCCCC4)c3c(C#N)cccc32)cc1 [Compound 26] | < 0.1 | – |
| Cc1ccc(Cn2nc(C(=O)NCCc3nc4c(s3)CCCC4)c3c(C#N)cccc32)cc1 [Compound 60] | 0.1 to 0.5 | – |
| O=C(NCCc1ccccn1)c1cn(Cc2ccccc2)c2ccccc12 [Compound 234] | > 2.5 | – |
| O=C(NCCc1nnc2ccccn12)c1nn(Cc2nc3ccccc3[nH]2)c2ccccc12 [Compound 521] | 1 to 2.5 | – |
| Cc1cnc(CCNC(=O)c2cn(Cc3ccc(Cl)cc3)c3ccccc23)nc1 [Compound 207] | 1 to 2.5 | – |
| Cc1ccc(Cn2nc(C(=O)NCCc3ncnn3C)c3ccccc32)cc1 [Compound 113] | 1 to 2.5 | – |
| O=C(NCCCn1cnc2ccccc21)c1nn(Cc2ccc(Cl)cc2)c2ccccc12 [Compound 425] | 1 to 2.5 | – |
| COc1ccc(CCNC(=O)c2cn(Cc3ccc(Cl)cc3)c3ccccc23)cc1 [Compound 182] | 0.1 to 0.5 | – |
| O=C(NCCc1nc2c(s1)CCCC2)c1nn(Cc2ccc(Cl)cc2)c2ccccc12 [Compound 29] | 0.1 to 0.5 | – |
| O=C(NCCc1nnc2ccccn12)c1nn(Cc2nc3ccccc3[nH]c2=O)c2ccccc12 [Compound 516] | > 2.5 | – |
| O=C(Cn1nc(C(=O)NCCc2nnc3ccccn23)c2ccccc21)NCC1CCCCC1 [Compound 472] | – | > 2.5 |
